Data taken from PubChem BioAssay (NCI).
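The compound was tested at five concentrations on cells cultured in 96-well plates, with a 48-hour exposure period. GI50: concentration for 50% inhibition of growth. TGI: total growth inhibition.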

Legend:
Assay in all cases: inhibition of tumour cell growth, NCI panel, 48 h
BT-549 breast = system: BT-549 breast
SF-539 CNS = system: SF-539 CNS
OVCAR-3 ovarian = system: OVCAR-3 ovarian
SK-MEL-28 melanoma = system: SK-MEL-28 melanoma
NCI-H460 lung = system: NCI-H460 lung
PC-3 prostate = system: PC-3 prostate
HCC-2998 colon = system: HCC-2998 colon
MOLT-4 leukemia = system: MOLT-4 leukemia
KM20L2 colon = system: KM20L2 colon
DMS 114 small cell lung = system: DMS 114 small cell lung

Structure (SMILES)	GI50 (BT-549 breast)	TGI (BT-549 breast)	GI50 (SF-539 CNS)	TGI (SF-539 CNS)	GI50 (OVCAR-3 ovarian)	TGI (OVCAR-3 ovarian)	GI50 (SK-MEL-28 melanoma)	TGI (SK-MEL-28 melanoma)	GI50 (NCI-H460 lung)	TGI (NCI-H460 lung)	GI50 (PC-3 prostate)	TGI (PC-3 prostate)	GI50 (HCC-2998 colon)	TGI (HCC-2998 colon)	GI50 (MOLT-4 leukemia)	TGI (MOLT-4 leukemia)	TGI (KM20L2 colon)	TGI (DMS 114 small cell lung)
OCCNCCNc1c2ccccc2nc2oc3ccccc3c12	13.3 µM	28.2 µM	8.04 µM	21 µM	12.5 µM	42.8 µM	12.1 µM	26.5 µM	4.44 µM	17.5 µM	9.73 µM	34.7 µM	4.91 µM	20.9 µM	4.78 µM	> 100 µM	–	–
CCCCCCCCCCCC[n+]1ccc(C(N)=O)cc1	1.93 µM	4.7 µM	2.36 µM	6.31 µM	2.28 µM	8.72 µM	4.33 µM	15 µM	3.81 µM	14.1 µM	0.71 µM	3.55 µM	2.71 µM	10.9 µM	3.29 µM	> 100 µM	–	–
CS/C(c1ccccc1)=[N+](/C)[O-]	–	–	–	> 100 µM	–	> 100 µM	–	> 100 µM	–	99.4 µM	–	–	–	> 100 µM	–	> 100 µM	> 100 µM	–
O=C(CCCCCCC(=O)Nc1ccc2c(c1)/C(=C/c1ccc[nH]1)C(=O)N2)NO	1.87 µM	22 µM	0.603 µM	16 µM	0.354 µM	5.51 µM	0.372 µM	9.3 µM	2.67 µM	> 100 µM	0.851 µM	> 100 µM	1.64 µM	10.9 µM	0.289 µM	> 100 µM	–	–
NCCCCN(Cc1nc2ccccc2[nH]1)[C@H]1CCCc2cccnc21	22.8 µM	> 100 µM	13.3 µM	27.6 µM	15.3 µM	> 100 µM	14.9 µM	34.8 µM	7.47 µM	> 100 µM	5.52 µM	> 93.2 µM	16.9 µM	38.2 µM	17.5 µM	69.4 µM	–	–
COc1ccc2nc(C)cc(Nc3ccccc3O)c2c1	37.1 µM	> 100 µM	19.2 µM	42.2 µM	37.2 µM	> 100 µM	21.3 µM	57.3 µM	19.4 µM	54.4 µM	29.9 µM	> 100 µM	17.6 µM	34.3 µM	24.8 µM	78.6 µM	–	–
CN(C)c1ccc(O)c2c1C[C@H]1C[C@H]3[C@H](N(C)C)C(=O)C(C(N)=O)=C(O)[C@@]3(O)C(=O)C1=C2O	4.14 µM	20.1 µM	3.88 µM	15.5 µM	4.92 µM	39.5 µM	7.52 µM	48.4 µM	3.45 µM	20.7 µM	6.61 µM	93.2 µM	4.19 µM	17.8 µM	10.7 µM	40.6 µM	–	–
COCCNC(=O)c1ccc(-c2nc3ccc4[nH]ncc4c3c3c2CCCC3)cc1	1.22 µM	9.34 µM	1.71 µM	8.01 µM	3.85 µM	37.3 µM	2.49 µM	98.2 µM	1.86 µM	27.1 µM	2.96 µM	> 100 µM	2.98 µM	> 100 µM	1.61 µM	5.62 µM	–	–
COc1cc(/C=C/C(=O)c2c(C)n([O-])c3ccc(Cl)cc3[n+]2=O)cc(OC)c1OC	18.7 µM	42.5 µM	25.4 µM	52.6 µM	> 100 µM	> 100 µM	> 100 µM	> 100 µM	56.6 µM	> 100 µM	27.5 µM	> 100 µM	> 100 µM	> 100 µM	> 100 µM	> 100 µM	–	–
O=C(CN1C(=O)c2ccccc2C1=O)C(O)CN1C(=O)c2ccccc2C1=O (configuration not stated)	–	> 100 µM	–	> 100 µM	–	> 100 µM	–	> 100 µM	–	> 100 µM	–	> 100 µM	–	> 100 µM	–	> 100 µM	–	–
Cc1ccc(C2=C(c3ccccc3)C(Br)(c3ccccc3)C(c3ccccc3)=C2c2ccc(C)cc2)cc1	–	–	–	> 100 µM	–	> 100 µM	–	> 100 µM	–	> 100 µM	–	–	–	–	–	> 100 µM	> 100 µM	> 100 µM
C/C=C/C=C\C1OC(O)([C@H](CC)C(=O)NC/C=C/C=C(\C)[C@H](OC)C(C)C2OC(\C=C/C=C/C=C(\C)C(=O)c3c(O)ccn(C)c3=O)[C@H](O)[C@@H]2O)C(O)C(O)C1(C)C (some centres not stated)	–	> 100 µM	–	> 100 µM	–	> 100 µM	–	> 100 µM	–	> 100 µM	–	> 100 µM	–	> 100 µM	–	> 100 µM	–	–
Cn1c(=O)c(C(=O)NC(=O)OCc2ccccc2)cn(CCSCCOC(=O)NCCCCCCNC(=O)OCCSCCn2cc(C(=O)NC(=O)OCc3ccccc3)c(=O)n(C)c2=O)c1=O	–	–	–	> 100 µM	–	–	–	> 100 µM	–	> 100 µM	–	–	–	> 100 µM	–	> 100 µM	> 100 µM	> 100 µM
OC(CNc1ccnc2cc(Cl)ccc12)CNC1CCCCC1 (configuration not stated)	3.69 µM	16.7 µM	1.76 µM	3.38 µM	15 µM	34.7 µM	1.76 µM	3.31 µM	13.8 µM	30.2 µM	8.08 µM	28.7 µM	3.79 µM	11 µM	9.15 µM	31.9 µM	–	–
O=C(N/N=C\c1ccc(N(CCCl)CCCl)cc1Cl)c1cccnc1	22.7 µM	> 76 µM	33.1 µM	> 100 µM	3.37 µM	14.3 µM	26.5 µM	> 100 µM	0.192 µM	12.7 µM	19.2 µM	> 100 µM	17.2 µM	68.1 µM	10.5 µM	42.7 µM	–	–
Cc1ccc(N2C(=O)/C(=C/c3ccc(N(CCC#N)CCC#N)cc3C)N=C2c2cc([N+](=O)[O-])ccc2Cl)cc1	–	–	–	> 100 µM	–	> 100 µM	–	> 100 µM	–	> 100 µM	–	–	–	> 100 µM	–	> 100 µM	–	> 100 µM
Cc1ccc(/C=C2\CCCC\C2=N\O)cc1	–	–	–	> 100 µM	–	> 100 µM	–	> 100 µM	–	> 100 µM	–	–	–	> 100 µM	–	–	> 100 µM	–
O=C1C[C@@H]2CCCC[C@@H]2C12SCCS2	–	–	–	> 100 µM	–	> 100 µM	–	> 100 µM	–	> 100 µM	–	–	–	> 100 µM	–	> 100 µM	–	> 100 µM
